The values below come from patent publication US20210115104A1, “AMYLIN ANALOGUES” (Zealand Pharma A/S, priority 2015, published 2021).

Read-outs that look alike come from different tables or passages of the source. *1 amine or outer side, *2 acyl side, *3 side chain or, on linkers, in order; H or OH if unused. Where a SMILES comes first, the peptide text is derived from it. Bridges are numbered along the chain shown (N, C = ends). [ ]: non-standard residue; d: D form. The star is where a group is joined. C20 diacid = O=C(O)CCCCCCCCCCCCCCCCCCC(=O)*; γGlu = O=C(O)[C@H](CCC(=O)[*:2])N[*:1]; Hyp = O=C(O)[C@@H]1C[C@@H](O)CN1; NMeI = CC[C@H](C)[C@H](NC)C(=O)O; Sar = CNCC(=O)O A value given as a limit tells only on which side of the number the result lay.

Data set [1] has as its target T1, human calcitonin receptor (hCTR2) (Homo sapiens, UniProt P30988).
T1 construct: expressed in transfected cells
T1 sequence (P30988 25-474): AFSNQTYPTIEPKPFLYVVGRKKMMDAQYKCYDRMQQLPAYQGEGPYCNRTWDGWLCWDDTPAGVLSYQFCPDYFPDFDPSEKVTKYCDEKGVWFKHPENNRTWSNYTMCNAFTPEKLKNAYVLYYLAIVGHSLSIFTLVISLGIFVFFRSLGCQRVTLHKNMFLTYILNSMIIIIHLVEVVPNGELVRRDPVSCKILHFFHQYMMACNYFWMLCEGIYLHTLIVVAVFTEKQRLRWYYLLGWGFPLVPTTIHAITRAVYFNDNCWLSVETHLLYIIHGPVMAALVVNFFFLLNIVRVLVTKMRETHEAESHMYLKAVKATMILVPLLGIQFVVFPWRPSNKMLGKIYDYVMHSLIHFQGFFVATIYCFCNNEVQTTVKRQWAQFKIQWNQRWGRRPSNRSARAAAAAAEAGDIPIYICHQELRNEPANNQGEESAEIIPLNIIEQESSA
The data set is described as follows: hCTR2 cAMP assay (AlphaScreen) in COS7 cells. The settings on record: cAMP induction, COS7 cells expressing hCTR2; Table 1; read-out: hCTR2 EC50. Format: cell-based. An outline of the steps:
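Stable hCTR2 clone in RAMP-naïve COS7 cells stimulated 15 min at 37 °C with increasing peptide concentrations in Tyrode buffer pH 7.4 containing IBMX and 0.1% casein. cAMP in lysates measured by AlphaScreen; EC50 from 4-parameter logistic fit.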
On the technique in general: Cyclic AMP is a second messenger, typically raised through Gs and lowered through Gi signalling.

Data set [2] in a line: Assessment of solubility (turbidity absorbance at 325 nm). It is filed as physicochemical. Conditions: named as exception to solubility ≥1 mg/ml. As for the experimental part: A stock solution of the test peptide (2 mg/ml; determined from the weighed amount of peptide) in demineralized water adjusted to pH 2.5 with HCl was prepared, and aliquots were diluted 1:1 in 100 mM acetate buffer (pH 4.0 and pH 5.0), 100 mM histidine buffer (pH 6.0 and pH 7.0) and 100 mM phosphate buffer (pH 6.0, pH 7.0 and pH7.5), respectively, and loaded in a standard flat-bottom, non-sterile 96-well UV Microplate. The absorbance of samples (single samples, n=1) at 280 and 325 nm was measured in an absorbance-based plate reader, which was preheated to ambient temperature (typically 25° C.). The turbidity absorbance criterion for a peptide solubility of ≥1 mg/ml was an absorbance at 325 nm of s 0.02 absorbance units (which is 5 to 6 times the standard deviation of 8 buffer samples in a plate).

Data set [3] in a line: Assessment of physical stability (Thioflavin T fibrillation). It is filed as physicochemical. Set-up: key: FND = fibrillation not detected; FD = fibrillation detected. The settings on record: 1 mg/ml, 40° C., ThT. The method, boiled down: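 1 mg/ml peptide with 40 μM ThT in 50 mM phosphate pH 7.0, 50 mM histidine pH 7.0 or 50 mM acetate pH 4.0, in triplicate. Fluorescence read every 10 min after 300 s agitation over 96 h at 40 °C. Lag-time (h) is the intersection of linear fits to stable and growth phases.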

The nature of data set [4]: Assessment of chemical stability (RP-HPLC normalized purity). Format: physicochemical. Conditions: 7 days, 40° C., Table 1. The method, boiled down:
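Peptides at 0.2 mg/ml in water adjusted to pH 4, 6, 7.5 or 9, incubated at 40° C for 7 days. Main-peak area-% by RP-HPLC (C8 ammonium formate or C18 TFA gradient, UV 220 nm), normalized to T=0 as 100.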

The target of data set [5] is T2, human amylin receptor 3 (hAMYR3), hCTR2 co-expressed with hRAMP3 (Homo sapiens, UniProt O60896+P30988).
T2 construct: expressed in transfected cells
T2 sequence (P30988 25-474): T1 sequence (P30988 25-474)
T2 sequence (O60896 24-148 partner): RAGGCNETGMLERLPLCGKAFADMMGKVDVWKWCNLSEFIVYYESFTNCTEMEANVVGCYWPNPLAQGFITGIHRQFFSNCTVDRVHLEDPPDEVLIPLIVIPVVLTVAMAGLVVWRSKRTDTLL
The data set is described as follows: hAMYR3 cAMP assay (AlphaScreen) in COS7 cells. It is filed as cell-based. Conditions: cAMP induction, COS7 cells expressing hAMYR3; Table 1; read-out: hAMYR3 EC50. An outline of the steps: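 Stable COS7 clone co-expressing hCTR2 and hRAMP3 was exposed to increasing peptide concentrations in Tyrode buffer (pH 7.4) with 100 µM IBMX and 0.1% casein for 15 min at 37 °C. Lysate cAMP was measured by AlphaScreen; EC50 came from 4-parameter logistic fitting.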

Where [6] appears, read: pH 6.0, read-out: solubility at pH 6.0.
[7] abbreviates: phosphate buffer, pH 7.5, read-out: solubility at pH 7.5.

One may read the EC50 as the midpoint of the concentration-response curve. A word on the solubility: it is the concentration that dissolves in the medium under given conditions. Turning to `CC[C@H](C)[C@@H](C(=O)N[C@@H](CC(C)C)C(=O)N[C@@H](CO)C(=O)N[C@@H](CO)C(=O)N[C@H](C(=O)N[C@@H](CCC(=O)O)C(=O)N[C@H](C(=O)NCC(=O)N[C@@H](CO)C(=O)N[C@@H](Cc1ccccc1)C(=O)N[C@H](C(=O)N1C[C@H](O)C[C@H]1C(N)=O)[C@@H](C)O)C(C)C)[C@@H](C)O)N(C)C(=O)[C@H](C)NC(=O)CN(C)C(=O)[C@H](Cc1ccccc1)NC(=O)[C@H](CO)NC(=O)[C@H](CO)NC(=O)[C@H](CCCNC(=N)N)NC(=O)[C@@H](NC(=O)[C@H](CC(C)C)NC(=O)[C@H](Cc1ccccc1)NC(=O)[C@H](Cc1c[nH]cn1)NC(=O)[C@H](C)NC(=O)[C@H](CC(C)C)NC(=O)[C@H](CCCNC(=N)N)NC(=O)[C@H](CCC(=O)O)NC(=O)[C@@H](NC(=O)[C@H](C)NC(=O)[C@@H]1CSSC[C@H](NC(=O)[C@H](CCCNC(=N)N)NC(=O)CC[C@H](NC(=O)CCCCCCCCCCCCCCCCCCC(=O)O)C(=O)O)C(=O)NCC(=O)N[C@@H]([C@@H](C)O)C(=O)N[C@@H](C)C(=O)N[C@@H]([C@@H](C)O)C(=O)N1)[C@@H](C)O)[C@@H](C)O` [Compound 10, [19CD]-isoGlu-R-C( )-GTAT-C( )-ATERLAHFLTRSSF-Gly(Me)-A-Ile(Me)-LSSTEVGSFT-Hyp-NH2] ({C20 diacid-γGlu}-RCGTATCATERLAHFLTRSSF[Sar]A[NMeI]LSSTEVGSFT[Hyp]-NH2; disulfide 2-7), the 50% effective concentration (EC50) in data set [1] turned out to be 0.16 nM. The solubility in data set [2] (setting [6]) was below 1000 µg/mL. Also, the “Fibrillation pH 4.0 (Ac)” value in data set [3] (50 mM acetate buffer pH 4.0, 96 hours) is given as “FND”. In addition, in data set [3] (50 mM histidine buffer pH 7.0, 96 hours), the “Fibrillation pH 7.0 (His)” value is on record as “FD”. Further, the “Fibrillation pH 7.0 (Phos.)” value in data set [3] (50 mM phosphate buffer pH 7.0, 96 hours) is listed as “FD”. Moreover, the “Normalized purity after 7 days, 40° C., pH 4” value in data set [4] (pH 4, 0.2 mg/ml) is “A (A = >90%)”. Moreover, the “Normalized purity after 7 days, 40° C., pH 6” value in data set [4] (pH 6, 0.2 mg/ml) was “A (A = >90%)”. Moreover, in data set [4] (pH 7.5, 0.2 mg/ml), the “Normalized purity after 7 days, 40° C., pH 7.5” value is “B (B = 70-90%)”. Also, the “Normalized purity after 7 days, 40° C., pH 9” value in data set [4] (pH 9, 0.2 mg/ml) is “B (B = 70-90%)”.
Consider `CC[C@H](C)[C@@H](C(=O)N[C@@H](CC(C)C)C(=O)N[C@@H](CO)C(=O)N[C@@H](CO)C(=O)N[C@H](C(=O)N[C@@H](CCC(=O)O)C(=O)N[C@H](C(=O)NCC(=O)N[C@@H](CO)C(=O)N[C@@H](CO)C(=O)N[C@H](C(=O)N1C[C@H](O)C[C@H]1C(N)=O)[C@@H](C)O)C(C)C)[C@@H](C)O)N(C)C(=O)[C@H](C)NC(=O)CN(C)C(=O)[C@H](Cc1ccccc1)NC(=O)[C@H](CO)NC(=O)[C@H](CO)NC(=O)[C@H](CCCNC(=N)N)NC(=O)[C@@H](NC(=O)[C@H](CC(C)C)NC(=O)[C@H](Cc1ccccc1)NC(=O)[C@H](Cc1c[nH]cn1)NC(=O)[C@H](C)NC(=O)[C@H](CC(C)C)NC(=O)[C@H](CCCNC(=N)N)NC(=O)[C@H](CCC(=O)O)NC(=O)[C@@H](NC(=O)[C@H](C)NC(=O)[C@@H]1CSSC[C@H](NC(=O)[C@H](CCCNC(=N)N)NC(=O)CC[C@H](NC(=O)CCCCCCCCCCCCCCCCCCC(=O)O)C(=O)O)C(=O)NCC(=O)N[C@@H]([C@@H](C)O)C(=O)N[C@@H](C)C(=O)N[C@@H]([C@@H](C)O)C(=O)N1)[C@@H](C)O)C(C)C` [Compound 31, [19CD]-isoGlu-R-C( )-GTAT-C( )-ATERLAHFLVRSSF-Gly(Me)-A-Ile(Me)-LSSTEVGSST-Hyp-NH2] ({C20 diacid-γGlu}-RCGTATCATERLAHFLVRSSF[Sar]A[NMeI]LSSTEVGSST[Hyp]-NH2; disulfide 2-7), for which the EC50 in data set [1] was 0.09 nM; in data set [5] it was 0.29 nM. Also, the solubility in data set [2] (pH 7.0, read-out: solubility at pH 7.0) was below 1000 µg/mL; in data set [2] (setting [7]) it was below 1000 µg/mL.
For the compound `CC[C@H](C)[C@@H](C(=O)N[C@@H](CC(C)C)C(=O)N[C@@H](CO)C(=O)N[C@@H](CO)C(=O)N[C@H](C(=O)N[C@@H](CCC(=O)O)C(=O)N[C@H](C(=O)NCC(=O)N[C@@H](CO)C(=O)N[C@@H](CO)C(=O)N[C@H](C(=O)N1CCC[C@H]1C(N)=O)[C@@H](C)O)C(C)C)[C@@H](C)O)N(C)C(=O)[C@H](C)NC(=O)CN(C)C(=O)[C@H](Cc1ccccc1)NC(=O)[C@H](CO)NC(=O)[C@H](CO)NC(=O)[C@H](CCCNC(=N)N)NC(=O)[C@@H](NC(=O)[C@H](CC(C)C)NC(=O)[C@H](Cc1ccccc1)NC(=O)[C@H](Cc1c[nH]cn1)NC(=O)[C@H](C)NC(=O)[C@H](CC(C)C)NC(=O)[C@H](CCCNC(=N)N)NC(=O)[C@H](CCC(=O)O)NC(=O)[C@@H](NC(=O)[C@H](C)NC(=O)[C@@H]1CSSC[C@H](NC(=O)[C@H](CCCNC(=N)N)NC(=O)CC[C@H](NC(=O)CCCCCCCCCCCCCCCCCCC(=O)O)C(=O)O)C(=O)NCC(=O)N[C@@H]([C@@H](C)O)C(=O)N[C@@H](C)C(=O)N[C@@H]([C@@H](C)O)C(=O)N1)[C@@H](C)O)C(C)C` [Compound 38, [19CD]-isoGlu-R-C( )-GTAT-C( )-ATERLAHFLVRSSF-Gly(Me)-A-Ile(Me)-LSSTEVGSSTP-NH2] ({C20 diacid-γGlu}-RCGTATCATERLAHFLVRSSF[Sar]A[NMeI]LSSTEVGSSTP-NH2; disulfide 2-7), the results for the 50% effective concentration (EC50) in data set [1] and in data set [5] were 0.06 nM and 0.12 nM, respectively. Also, the solubility in data set [2] (setting [6]) and in data set [2] (setting [7]) was below 1000 µg/mL throughout.
